Assay results taken from patent US6727275B2, “Pyrrolidinone derivatives” (UCB, S.A./N.V., priority 2001, dated 2004).
Read-outs that look alike come from different tables or passages of the source.

Target: T1, CCR2 (Homo sapiens, UniProt P41597)
T1 sequence (P41597 1-360 isoform P41597-2): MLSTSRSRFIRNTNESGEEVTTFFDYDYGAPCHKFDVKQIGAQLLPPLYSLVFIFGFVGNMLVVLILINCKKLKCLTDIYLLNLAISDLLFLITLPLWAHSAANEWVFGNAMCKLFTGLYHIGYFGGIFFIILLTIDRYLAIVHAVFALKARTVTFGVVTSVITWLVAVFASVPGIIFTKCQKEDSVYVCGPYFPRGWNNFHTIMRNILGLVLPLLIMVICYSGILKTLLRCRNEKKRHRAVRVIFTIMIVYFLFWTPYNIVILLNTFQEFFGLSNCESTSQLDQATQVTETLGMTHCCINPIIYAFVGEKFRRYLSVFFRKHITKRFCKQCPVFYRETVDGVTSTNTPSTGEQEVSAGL
Assay: Binding assay: inhibition of 125I-MCP-1 binding to THP-1 cells
Design: CCR2 is also expressed in the human monocytic cell line THP-1; endogenous in cells; host or cells: THP-1 (human monocytic cell line), whole cells
Experimental: Antagonism of the CCR2 receptor is determined by a binding assay using the human monocytic cell line THP-1. Cells are suspended in assay buffer (RPMI+1% BSA+25 mM HEPES) at 3×10^6 cells/ml and an aliquot (180 μl) added to a 0.5 ml siliconized Eppendorf tube. […] After incubation for 1 hr at room temperature, the cell suspension is centrifuged through oil and the cell pellets counted to quantitate cell-bound ligand. Nonspecific (NS) binding of radioligand is determined by the addition of 100 nM cold MCP-1. Control binding is determined by the addition of buffer without compound.

[1] = THP-1 cells, 0.1 nM 125I-MCP-1, 1 hr at room temperature, read-out: Inhibition of 125I-MCP-1 binding to THP-1 cells, IC50

Structure (SMILES): CC(=O)C1=C(O)C(=O)N(c2ccc(Cl)cc2F)C1C1CCCC1 (racemic) [Compound 119, 4-acetyl-1-(4-chloro-2-fluorophenyl)-5-cyclopentyl-3-hydroxy-1,5-dihydro-2H-pyrrol-2-one]
- IC50 [1]: ≤ 5 µM

Structure (SMILES): CC(=O)C1=C(O)C(=O)N(c2ccc(C)cc2)C1C1CCCCCC1 (racemic) [Compound 68, 4-acetyl-5-cycloheptyl-3-hydroxy-1-(4-methylphenyl)-1,5-dihydro-2H-pyrrol-2-one]
- IC50 [1]: ≤ 5 µM

Structure (SMILES): CC(=O)C1=C(O)C(=O)N(c2ccc(C)cc2)C1c1ccc(Br)cc1 (racemic) [Compound 20, 4-acetyl-5-(4-bromophenyl)-3-hydroxy-1-(4-methylphenyl)-1,5-dihydro-2H-pyrrol-2-one]
- IC50 [1]: ≤ 5 µM

Structure (SMILES): CC(=O)C1=C(O)C(=O)N(c2ccc(Cl)s2)C1C1CCCCC1 (racemic) [Compound 170, 4-acetyl-1-(5-chloro-2-thienyl)-5-cyclohexyl-3-hydroxy-1,5-dihydro-2H-pyrrol-2-one]
- IC50 [1]: ≤ 5 µM

Structure (SMILES): CC(=O)C1=C(O)C(=O)N(c2ccc(C)cc2)C1C1C=CCCC1 (stereo not shown) [Compound 50, 4-acetyl-5-(cyclohex-2-en-1-yl)-3-hydroxy-1-(4-methylphenyl)-1,5-dihydro-2H-pyrrol-2-one]
- IC50 [1]: ≤ 5 µM

Structure (SMILES): CC(=O)C1=C(O)C(=O)N(c2ccc(C)cc2)C1C1CCCC1 (racemic) [Compound 56, 4-acetyl-5-cyclopentyl-3-hydroxy-1-(4-methylphenyl)-1,5-dihydro-2H-pyrrol-2-one]
- IC50 [1]: ≤ 5 µM

Structure (SMILES): CC(=O)C1=C(O)C(=O)N(c2ccc(C)c(C)c2)C1CC(C)(C)C (racemic) [Compound 116, 4-acetyl-1-(3,4-dimethylphenyl)-3-hydroxy-5-neopentyl-1,5-dihydro-2H-pyrrol-2-one]
- IC50 [1]: ≤ 5 µM

Structure (SMILES): CC(=O)C1=C(O)C(=O)N(c2ccc(Cl)cc2)C1C1CC(C)(C)CC(C)(C)C1 (racemic) [Compound 145, 4-acetyl-1-(4-chlorophenyl)-3-hydroxy-5-(3,3,5,5-tetramethylcyclohexyl)-1,5-dihydro-2H-pyrrol-2-one]
- IC50 [1]: ≤ 5 µM

Structure (SMILES): CC(=O)C1=C(O)C(=O)N(c2ccc(C)cc2F)C1C1CCCCC1 (racemic) [Compound 54, 4-acetyl-5-cyclohexyl-1-(2-fluoro-4-methylphenyl)-3-hydroxy-1,5-dihydro-2H-pyrrol-2-one]
- IC50 [1]: ≤ 5 µM

Structure (SMILES): CC(=O)C1=C(O)C(=O)N(c2ccc(F)cc2F)C1C1CCCCC1 (racemic) [Compound 62, 4-acetyl-5-cyclohexyl-1-(2,4-difluorophenyl)-3-hydroxy-1,5-dihydro-2H-pyrrol-2-one]
- IC50 [1]: ≤ 5 µM

Structure (SMILES): CC(=O)C1=C(O)C(=O)N(c2ccc(Cl)c(N)c2)C1C1CCCCC1 (racemic) [Compound 71, 4-acetyl-1-(3-amino-4-chlorophenyl)-5-cyclohexyl-3 hydroxy-1,5-dihydro-2H-pyrrol-2-one]
- IC50 [1]: ≤ 5 µM

Structure (SMILES): CC(=O)C1=C(N)C(=O)N(c2ccc(C)cc2)C1C1CCCCC1 (racemic) [Compound 61, 4-acetyl-3-amino-5-cyclohexyl-1-(4-methylphenyl)-1,5-dihydro-2H-pyrrol-2-one]
- IC50 [1]: ≤ 5 µM

Structure (SMILES): CC(=O)C1=C(O)C(=O)N(c2ccc(F)cc2)[C@@H]1C1CCCC1 [Compound 137, (R)-4-acetyl-5-cyclopentyl-1-(4-fluorophenyl)-3-hydroxy-1,5-dihydro-2H-pyrrol-2-one]
- IC50 [1]: ≤ 5 µM

Structure (SMILES): CC(=O)C1=C(O)C(=O)N(c2ccc(C)c(Cl)c2)C1C1CCCCC1 (racemic) [Compound 59, 4-acetyl-1-(3-chloro-4-methylphenyl)-5-cyclohexyl-3-hydroxy-1,5-dihydro-2H-pyrrol-2-one]
- IC50 [1]: ≤ 5 µM

Structure (SMILES): CC(=O)C1=C(O)C(=O)N(c2ccc(C(F)(F)F)cc2)C1C1CCCCC1 (racemic) [Compound 49, 4-acetyl-5-cyclohexyl-3-hydroxy-1-[4-(trifluoromethyl)phenyl]-1,5-dihydro-2H-pyrrol-2-one]
- IC50 [1]: ≤ 5 µM

Structure (SMILES): CC(=O)C1=C(O)C(=O)N(c2ccc(Cl)c([N+](=O)[O-])c2)C1C1CCCCC1 (racemic) [Compound 66, 4-acetyl-1-(4-chloro-3-nitrophenyl)-5-cyclohexyl-3-hydroxy-1,5-dihydro-2H-pyrrol-2-one]
- IC50 [1]: ≤ 5 µM

Structure (SMILES): CNC(=O)C1=C(O)C(=O)N(c2ccc(C)cc2)C1C1CCCCC1 (racemic) [Compound 126, 2-cyclohexyl-4-hydroxy-N-methyl-1-(4-methylphenyl)-5-oxo-2,5-dihydro-1H-pyrrole-3-carboxamide]
- IC50 [1]: ≤ 5 µM

Structure (SMILES): CC(=O)C1=C(S)C(=O)N(c2ccc(Cl)cc2F)C1C1CCCCC1 (racemic) [Compound 169, 4-acetyl-1-(4-chloro-2-fluorophenyl)-5-cyclohexyl-3-sulfanyl-1,5-dihydro-2H-pyrrol-2-one]
- IC50 [1]: ≤ 5 µM

Structure (SMILES): CC(=O)C1=C(O)C(=O)N(c2ccc(Cl)cc2)C1C1CCCC1 (racemic) [Compound 118, 4-acetyl-1-(4-chlorophenyl)-5-cyclopentyl-3-hydroxy-1,5-dihydro-2H-pyrrol-2-one]
- IC50 [1]: ≤ 5 µM

Structure (SMILES): CC(=O)C1=C(O)C(=O)N(c2ccc(C)c(C)c2)C1C1CCCCC1 (racemic) [Compound 65, 4-acetyl-5-cyclohexyl-1-(3,4-dimethylphenyl)-3-hydroxy-1,5-dihydro-2H-pyrrol-2-one]
- IC50 [1]: ≤ 5 µM

Structure (SMILES): CC(=O)C1=C(O)C(=O)N(c2ccc(C)cc2)C1C12CC3CC(CC(C3)C1)C2 (racemic) [Compound 58, 4-acetyl-5-(1-adamantyl)-3-hydroxy-1-(4-methylphenyl)-1,5-dihydro-2H-pyrrol-2-one]
- IC50 [1]: ≤ 5 µM

Structure (SMILES): CC(=O)C1=C(O)C(=O)N(c2c(F)cc(Cl)cc2F)[C@H]1C1CCCCC1 (stereo in doubt) [Compound 147, (S)-4-acetyl-1-(4-chloro-2,6-difluorophenyl)-5-cyclohexyl-3-hydroxy-1,5-dihydro-2H-pyrrol-2-one]
- IC50 [1]: ≤ 5 µM

Structure (SMILES): CC(=O)C1=C(O)C(=O)N(Cc2ccccc2)C1c1ccco1 (racemic) [Compound 8, 4-acetyl-1-benzyl-5-(2-furyl)-3-hydroxy-1,5-dihydro-2H-pyrrol-2-one]
- IC50 [1]: ≤ 5 µM

Structure (SMILES): Cc1ccc(N2C(=O)C(O)=C(C(=O)C(C)(C)C)C2C2CCCCC2)cc1 (racemic) [Compound 41, 5-cyclohexyl-4-(2,2-dimethylpropanoyl)-3-hydroxy-1-(4-methylphenyl)-1,5-dihydro-2H-pyrrol-2-one]
- IC50 [1]: ≤ 5 µM

Structure (SMILES): CC(=O)C1=C(O)C(=O)N(c2cccc(Br)c2)C1C1CCCCC1 (racemic) [Compound 44, 4-acetyl-1-(3-bromophenyl)-5-cyclohexyl-3-hydroxy-1,5-dihydro-2H-pyrrol-2-one]
- IC50 [1]: ≤ 5 µM

Structure (SMILES): CC(=O)C1=C(O)C(=O)N(c2ccc(Br)cc2)C1C1CCCCC1 (racemic) [Compound 17, 4-acetyl-1-(4-bromophenyl)-5-cyclohexyl-3-hydroxy-1,5-dihydro-2H-pyrrol-2-one]
- IC50 [1]: ≤ 5 µM

Structure (SMILES): CC(=O)C1=C(O)C(=O)N(c2ccc(Cl)cn2)C1C1CCCCC1 (racemic) [Compound 172, 4-acetyl-1-(5-chloro-2-pyridinyl)-5-cyclohexyl-3-hydroxy-1,5-dihydro-2H-pyrrol-2-one]
- IC50 [1]: ≤ 5 µM

Structure (SMILES): CCCC(CCC)C1C(C(C)=O)=C(O)C(=O)N1c1ccc(C)cc1 (racemic) [Compound 39, 4-acetyl-3-hydroxy-1-(4-methylphenyl)-5-(1-propylbutyl)-1,5-dihydro-2H-pyrrol-2-one]
- IC50: ≤ 5 µM
